Where two headings read alike, the source gives them in different places.
Columns and labels:
[1] = physchem
[2] = pKa of thiol catalysts (Table 3)
[3] = Solubility of thiol catalysts at pH 7 (Table 3)

## Cc1ccc(S)cc1 [4-methylthiophenol]
other
  Solubility at pH 7: Sparingly soluble
[1]
  pKa: 6.8

## Sc1ccccc1 [Thiophenol]
other
  Solubility at pH 7: Slightly soluble

## O=[N+]([O-])c1ccc(S)cc1 [4-nitrothiophenol]
other
  Solubility at pH 7: Soluble

## SCc1ccccc1 [Benzyl mercaptan]
[2]
  pKa: 9.67
[3]
  Solubility at pH 7: Sparingly soluble

## Oc1ccc(S)cc1 [4-mercaptophenol]
other
  Solubility at pH 7: Soluble
[1]
  pKa: 6.8

## Oc1cccc(S)c1 [3-mercaptophenol]
other
  Solubility at pH 7: Very soluble
[1]
  pKa: 6.5

## O=C(O)Cc1ccc(S)cc1 [4-mercaptophenylacetic acid]
other
  Solubility at pH 7: Very soluble

## Sc1ccc(Cl)cc1 [4-chlorothiophenol]
[2]
  pKa: 6.11
[3]
  Solubility at pH 7: Sparingly soluble

## O=C(O)c1cccc(S)c1 [3-mercaptobenzoic acid]
other
  Solubility at pH 7: Very soluble
[1]
  pKa: 5.78

## Sc1ccccn1 [2-mercaptopyridine]
other
  Solubility at pH 7: Soluble
[1]
  pKa: -1.07

## Sc1ncccn1 [2-mercaptopyrimidine]
other
  Solubility at pH 7: Very soluble
[1]
  pKa: 2.03

## Nc1ccc(S)cc1 [4-aminothiophenol]
other
  Solubility at pH 7: Very soluble
[1]
  pKa: 8.86

## O=S(=O)([O-])CCS.[Na+] [MESNA, sodium 2-mercaptoethanesulfonate]
other
  Solubility at pH 7: Very soluble
[1]
  pKa: 9.08

## COc1ccc(S)cc1 [4-methoxythiophenol]
other
  Solubility at pH 7: Slightly soluble
[1]
  pKa: 6.75
